Assay results reported in PMC7046553, “Backbone Cyclization and Dimerization of LL-37-Derived Peptides Enhance Antimicrobial Activity and Proteolytic Stability” (Frontiers in Microbiology, 2020).
Where no end group is shown, it is not given here.

How the values were obtained:
[1] = tested on: Escherichia coli; parameters: method as in Wang, 2008; settings: ref Wang, 2008; cited from earlier work
[2] = tested on: Escherichia coli ATCC 25922; parameters: method as in Gunasekera et al., 2018; settings: ref Gunasekera et al., 2018; cited from earlier work
[3] = tested on: Pseudomonas aeruginosa ATCC 27853; parameters: method as in Gunasekera et al., 2018; settings: ref Gunasekera et al., 2018; cited from earlier work
[4] = tested on: Human type A RBCs; assay: Hemolysis assay; assay type: cell-based
Procedure: Peptides were dissolved in water and serially diluted in PBS to give 20 μl test solutions in a 96-well U-bottomed microtiter plate (Nunc). Human type A RBCs (red blood cells) were washed with PBS and centrifuged at 1500 g for 60 s in a microcentrifuge several times until a clear supernatant was obtained. A 0.25% suspension of washed RBCs in PBS (100 μl) was added to the peptide solutions. The plate was incubated at 37°C for 1 h and centrifuged at 150 g for 5 min. Aliquots of 100 μl were transferred to a 96-well flat-bottomed microtiter plate (Falcon) and the absorbance was measured at 405 nm with an automatic Multiskan Ascent plate reader (Labsystems). The amount of hemolysis was calculated as the percentage of maximum lysis (1% Triton X-100 control) after adjusting for minimum lysis (PBS control). Synthetic melittin (Sigma) was used for comparison. The hemolytic dose necessary to lyse 50% of the RBCs (HD50) was calculated using the regression constant from the linear portion of the hemolytic titration curve (GraphPad Prism software).

[5] = tested on: Staphylococcus aureus ATCC 29213; parameters: method as in Gunasekera et al., 2018; settings: ref Gunasekera et al., 2018; cited from earlier work
[6] = Liposome leakage assay, bacterial liposomes; parameters: species or system E. coli
Procedure: Membrane disruption was assayed by liposome leakage. […] E. coli and Saccharomyces cerevisiae membrane lipids were reconstituted into large unilamellar vesicles, trapping a self-quenching fluorescent marker.
Polar lipid extract from E. coli, and S. cerevisiae (Avanti Polar Lipids, Alabaster, AL-US) were used, the latter supplemented with ergosterol (Sigma-Aldrich) at a 7:3 molar ratio. In brief, dry lipid films were deposited on round-bottom flask walls and re-suspended in Tris buffer containing of 100 mM 5(6)-carboxyfluorescein. Multilamellar structures and polydispersity were reduced by repeated extrusion through 100-nm polycarbonate membranes. Un-trapped carboxyfluorescein was removed by gel separation. Membrane permeability was measured by monitoring carboxyfluorescein efflux from the liposomes to the external low concentration environment, resulting in loss of self-quenching and an increased fluorescence signal. The leakage experiments were performed on a 96-well plate format. […] EC50-values are calculated from sigmoidal dose-response curves of leakage percentage as a function of the peptide concentration (log10).

[7] = tested on: Candida albicans ATCC 90028; parameters: method as in Gunasekera et al., 2018; settings: ref Gunasekera et al., 2018; cited from earlier work
[8] = tested on: Escherichia coli ATCC 25922; settings: ATCC 25922, 5 h
Procedure: (§1) The three bacterial strains: Escherichia coli ATCC 25922, Pseudomonas aeruginosa ATCC 27853 Staphylococcus aureus ATCC 29213 as well as the fungal strain Candida albicans ATCC 90028 derived from clinical wound infections were obtained from the Department of Clinical Bacteriology at Lund University Hospital.
(§2) Antimicrobial activities of the peptides were evaluated using the two-step microdilution assay ([Strömstedt et al., 2017]), which is designed for testing AMPs without activity-inhibiting components. Briefly, the microbial suspension was washed twice with 10 mM Tris buffer (set to pH 7.4 at 37°C). 96-well plates (U-shaped, untreated polystyrene) were prepared with peptide 2-fold serial dilutions in Tris buffer. The culture density was quantified by OD600, diluted in Tris buffer and 50,000 cells aliquoted to each well in the 96-well plate to a final 100 μl volume. After 5 h of aerobic incubation at 37°C, 5 μl of 20% TSB medium was added to each well (resulting in 1% TSB) and the plates were re-incubated. Growth-inhibition was monitored when controls produced pellet sizes of 2 mm in diameter (close to growth saturation), which equates to 5, 8, 10, and 12 h for E. coli, S. aureus, P. aeruginosa, and C. albicans, respectively. […] The MIC-values in Table 1, are medians from triplicate experiments, while the data presented in the Figure 2 are the same values relative to that of KR-12.

[9] = tested on: Candida albicans ATCC 90028; settings: ATCC 90028, 5 h
Procedure: as §1, §2

[10] = tested on: human lymphoma cell line U-937 GTB; settings: cited from earlier work
[11] = Liposome leakage assay, fungal liposomes; parameters: species or system S. cerevisiae; settings: 50% leakage, 45 min incubation, 37°C; read-out: EC50 fung. (liposome leakage)
Procedure: FIGURE 3 Peptide induced liposome leakage. Bacterial liposomes based on E. coli polar lipid extract (A,B), and fungal liposomes of S. cerevisiae polar lipid extract and ergosterol (7:3) (C), were monitored for fluorescent marker leakage over 45 min of incubation with peptides. (A) Compares membrane disrupting efficacy at the 45 min mark for the parent peptide, monomer, lysine substitutions and dimerization, (B) effects of linker length, monomer directionality and backbone cyclization, (C) effect on KR-12 directionality and dimerization on a fungal liposome system. […] Results are means from triplicate experiments with standard deviations.
The liposome production and the liposome leakage assay were performed similar to what has previously been described ([Strömstedt et al., 2016]). […] Membrane permeability was measured by monitoring carboxyfluorescein efflux from the liposomes to the external low concentration environment, resulting in loss of self-quenching and an increased fluorescence signal. […] The effect of each peptide concentration on liposome integrity was monitored for 45 min, at which point the leakage had largely subsided. […] EC50-values are calculated from sigmoidal dose-response curves of leakage percentage as a function of the peptide concentration (log10).

Sequence: KRIVQRIKDFLR [KR-12]
- MIC against Escherichia coli [1]: 40 µM
- MIC against Escherichia coli [2]: 2.5 µM
- MIC against Pseudomonas aeruginosa [3]: 10 µM
- HC50 (hemolysis) [4]: > 80 µM
- MIC against Staphylococcus aureus [5]: 10 µM
- EC50 ([6]; 50% leakage, 45 min incubation, 37°C, read-out: EC50 bact. (liposome leakage)): ~25 µM
- fold higher concentration than LL-37 required to reach 50% leakage ([6]; E. coli liposomes): 38 fold
- MIC against Candida albicans [7]: 10 µM
- MIC bact. [8]: 2.5 µM
- MIC fung. [9]: 10 µM
- loss of cell viability ([10]; at the maximum concentration of 80 μM, ref Gunasekera et al., 2018): 13%
- IC50 [10]: > 80 µM
- EC50 [11]: 0.95 µM
